Data reported in patent US20230321055A1, “PREVENTIVE TREATMENT OF MIGRAINE” (priority 2022, published 2023).

Columns and labels:
[1] = test system: participants with chronic migraine; test: Same phase 3 study: safety and tolerability (adverse events, hepatic laboratory values), safety population; type: in vivo, human
Protocol: A phase 3, multicenter, randomized, double-blind, placebo-controlled, parallel-group study was carried out to evaluate the efficacy, safety, and tolerability of atogepant for the prevention of chronic migraine. A total of 778 participants from 133 sites in North America, Europe, and East Asia were randomized to one of three treatment arms (placebo, Atogepant 30 mg BID, and Atogepant 60 mg QD) in a 1:1:1 ratio.
This study comprised a 4-week screening and baseline period, a 12-week double blind treatment period, and a follow-up period of 4 additional weeks. The total study duration was 20 weeks. Participant disposition information and other relevant participant screening information may also be found in FIG. 19.
The overall safety profile of the study was consistent with safety findings observed in previous studies of atogepant in an episodic migraine population. […] For the safety population, the mean treatment duration for atogepant 30 mg BID, atogepant 60 mg QD, and placebo group were 80.1 days, 79.7 days, and 80.3 days, respectively. Serious adverse events occurred in 2.7% of patients treated with atogepant 60 mg QD and 1.6% of patients treated with atogepant 30 mg BID, compared to 1.2% of patients with placebo.
Table 11 presents the number and percentage of participants with post-baseline hepatic-related laboratory parameter values of clinical interest. There were five participants who had post-baseline ALT or AST elevations (≥3*ULN), with 1/254 (0.4%), 2/255 (0.8%), and 2/257 (0.8%) in the placebo, atogepant 30 mg BID, and atogepant 60 mg QD groups, respectively. All cases in the atogepant dose groups were adjudicated as unlikely to be related to study drug. No participants met potential Hy's law criteria.

[2] = oral administration; cited from earlier work
[3] = 30 mg BID, safety population (N = 257)
[4] = 60 mg QD, safety population (N = 261)

C[C@@H]1[C@H](c2c(F)ccc(F)c2F)C[C@H](NC(=O)c2cnc3c(c2)C[C@@]2(C3)C(=O)Nc3ncccc32)C(=O)N1CC(F)(F)F [Atogepant, (S)—N—((3S,5S,6R)-6-methyl-2-oxo-1-(2,2,2-trifluoroethyl)-5-(2,3,6-trifluorophenyl)piperidin-3-yl)-2′-oxo-1′,2′,5,7-tetrahydrospiro[cyclopenta[b]pyridine-6,3′-pyrrolo[2,3-b]pyridine]-3-carboxamide]
Deaths [1, 3]: 0 n (%)
TEAE leading to treatment discontinuation [1, 3]: 13 (5.1) n (%)
TEAEs, participants [1, 3]: 145 (56.4) n (%)
TESAE Anal abscess [1, 3]: 1 (0.4) n (%)
TESAE Benign ovarian tumour [1, 3]: 1 (0.4) n (%)
TESAE COVID-19 [1, 3]: 0 n (%)
TESAE COVID-19 pneumonia [1, 3]: 1 (0.4) n (%)
TESAE Cholelithiasis [1, 3]: 0 n (%)
TESAE Epicondylitis [1, 3]: 0 n (%)
TESAE Fall [1, 3]: 0 n (%)
TESAE Hip fracture [1, 3]: 0 n (%)
TESAE Nasal septum deviation [1, 3]: 0 n (%)
TESAE Plasma cell myeloma [1, 3]: 0 n (%)
Deaths [1, 4]: 0 n (%)
TESAE COVID-19 [1, 4]: 1 (0.4) n (%)
TESAE COVID-19 pneumonia [1, 4]: 0 n (%)
serious adverse events considered related to study treatment by the investigator ([1]; in vivo): None
half-life [2]: approximately 11 hours
time to maximum plasma concentrations [2]: ≤ 2 h
